Experimental findings from US12152038B2, “Vasopressin receptor antagonists and products and methods related thereto” (Neumora Therapeutics, Inc., priority 2017, dated 2024) are described below.

The target of the assay is T1, human Arginine Vasopressin Receptor 1b (AVPR1b) (Homo sapiens, UniProt P47901).
T1 construct: expressed in transfected cells; host or cells: CHO (CHO-AVPR1b, kept under G418 selection)
T1 sequence (P47901 1-424): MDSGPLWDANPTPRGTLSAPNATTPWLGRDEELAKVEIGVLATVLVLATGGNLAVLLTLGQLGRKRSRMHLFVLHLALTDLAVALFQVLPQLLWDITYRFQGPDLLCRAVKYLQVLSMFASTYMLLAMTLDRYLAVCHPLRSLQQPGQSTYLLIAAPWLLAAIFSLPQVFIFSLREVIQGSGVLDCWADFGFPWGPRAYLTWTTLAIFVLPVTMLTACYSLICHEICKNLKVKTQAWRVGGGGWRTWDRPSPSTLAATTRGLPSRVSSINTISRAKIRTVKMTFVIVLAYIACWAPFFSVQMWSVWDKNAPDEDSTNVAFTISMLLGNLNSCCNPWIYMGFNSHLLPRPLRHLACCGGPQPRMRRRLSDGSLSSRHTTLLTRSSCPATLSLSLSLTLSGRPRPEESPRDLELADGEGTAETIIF
The assay is described as follows: Vasopressin V1b receptor antagonist assay (FLIPR calcium, CHO-AVPR1b cells). It is filed as cell-based. As for the experimental part: The purpose of the assay was to determine the inhibitory effect of synthesized compounds on the Vasopressin V1b receptor. The assay was performed in Chinese Hamster Ovary (CHO) cells expressing the human Arginine Vasopressin Receptor 1b (AVPR1b). Arginine Vasopressin (AVP) evokes an increase in intracellular calcium in CHO-AVPR1b cells which is measured in a fluorescence assay on the FLIPR^TETRA using calcium sensitive dyes. Test compounds were assessed for their ability to affect the magnitude of the response to AVP, with antagonists showing a concentration-dependent reduction in the AVP-mediated fluorescence.
CHO-AVPR1b cells were maintained in routine culture in T175 Flasks at 37° C., 5% CO2. The growth medium consisted of Ham's F12 media supplemented with 10% v/v fetal bovine serum, 1× non-essential amino acids, and 0.4 mg/ml Geneticin G418.
Cells were harvested from T175 flasks when they were 80-90% confluent by first washing the cell monolayer with PBS and then dissociated using trypsin 0.05%/EDTA (3 mL for a T175 Flask). The flasks were incubated at room temperature until the cells detached. To the cell suspension, 10 ml of growth media was added and the cell density determined using the Vi-Cell automated cell counter. The cells were spun at 1000 rpm for 3 minutes, then the supernatant was carefully removed and discarded. The cell pellet was re-suspended at 6.0e^5 cells/ml in growth media. 25 μL of cells in growth media was dispensed into each well (15,000 cells per well) of a poly-D-lysine coated black, clear bottomed, 384-well plate. The plates were incubated at 37° C., 5% CO2 overnight.
At the start of each assay day, the potency of AVP was assessed and an EC80 concentration determined for subsequent compound profiling. Assays were performed using a two-step addition protocol on the FLIPR^TETRA; first addition of 5 μl of control or test compound at 10× final in assay buffer with 15 min incubation at 37° C., 5% CO2 followed by 10 μl of AVP at 6× final concentration in assay buffer. Changes in fluorescence were monitored for 3 min after both additions on the FLIPR^TETRA using 470-495 nm excitation and 515-575 nm emission wavelengths. The assay buffer consisted of HBSS (+Ca/+Mg) supplemented with 20 mM HEPES, and for the preparation of the AVP agonist only, 0.1% w/v bovine serum albumin. The assay was initiated by the removal of growth media from the cells and replacement with 45 μl of Calcium-6 dye (Molecular Devices) prepared at 1× in assay buffer. Cells were loaded with dye for 60-90 min at 37° C., 5% CO2 before initiation of the FLIPR^TETRA protocol. […] For compound profiling, test compounds were first serially diluted in DMSO (10-point curve, 1:3 dilutions) then diluted 33.3-fold in assay buffer prior to addition to the dye loaded cells on the FLIPR^TETRA. At the end of the incubation period 10 μl of AVP in assay buffer containing 0.1% BSA was added at the previously determined EC80 concentration.
In-plate controls for the assay included a Nelivaptan concentration-response curve as the reference V1b antagonist and an AVP concentration-response curve to confirm the reproducibility of the EC80 used for the compound challenge.

For `CC1COc2cc(Cl)ccc2N1C(=O)N1CC2(C1)CN(c1noc3cccnc13)C2` (stereo not drawn) [18-3], the IC50 is ≥ 1 µM.

With `CC1COc2cc(F)ccc2N1C(=O)N1CC2(C1)CN(c1ccc(F)cn1)C2` (single isomer, unassigned) [12-1-B], the half-inhibitory concentration (IC50) was ≥ 1 µM.

Turning to `Cc1cnc(N2CC3(CN(C(=O)N4c5ccc(Cl)cc5OCC4C)C3)C2)nc1` (stereo not drawn) [20-13], the IC50 was ≥ 1 µM.

As for `Cc1ccnc(N2CC3(CN(C(=O)N4c5ccc(Cl)cc5OCC4C)C3)C2)n1` (stereo not drawn) [20-12], the IC50 was ≥ 1 µM.

Consider `CC1COc2cc(F)ccc2N1C(=O)N1CC2(C1)CN(c1cc(C#N)ccn1)C2` (single isomer, unassigned) [20-3-B], for which the IC50 was ≥ 1 µM.

As to `Cc1nccnc1N1CC2(CN(C(=O)N3c4ccc(Cl)cc4OCC3C)C2)C1` (stereo not drawn) [20-10], the IC50 was ≥ 1 µM.

For the molecule `CC1CN(C(=O)N2CC3(C2)CN(c2ccc(F)cn2)C3)c2ccc(F)cc2O1` (single isomer, unassigned) [9-4-B], the 50% inhibitory concentration (IC50) was ≥ 1 µM.

On to `O=C(N1CC2(C1)CN(c1cnccn1)C2)N1CCC(O)c2cc(Cl)ccc21` (stereo not drawn) [13-3], for which the IC50 was ≥ 1 µM.

With `O=C(N1CC2(C1)CN(c1ccc(F)cn1)C2)N1CCOCc2cc(Cl)ccc21` [8-4], the IC50 is ≥ 1 µM.

On to `O=C(N1CC2(C1)CN(c1cc(F)ccn1)C2)N1CCc2cc(Cl)ccc21` [1-79], for which the IC50 was ≥ 1 µM.

Turning to `CC1COc2cc(Cl)ccc2N1C(=O)N1CC2(C1)CN(c1noc3cccnc13)C2` (single isomer, unassigned) [18-3-B], the IC50 is ≥ 1 µM.

Take `CC1COc2cc(Cl)c(F)cc2N1C(=O)N1CC2(C1)CN(c1ncccn1)C2` (stereo not drawn) [19-2]: the IC50 is ≥ 1 µM.

Regarding `CC1COc2cc(F)ccc2N1C(=O)N1CC2(C1)CN(c1noc3ccccc13)C2` (stereo not drawn) [4-3], the IC50 was ≥ 1 µM.

For the molecule `COc1ccnc(N2CC3(CN(C(=O)N4c5ccc(Cl)cc5OCC4C)C3)C2)c1` (single isomer, unassigned) [20-8-B], the half-maximal inhibitory concentration (IC50) is ≥ 1 µM.

As for `CC1COc2cc(F)c(F)cc2N1C(=O)N1CC2(C1)CN(c1cccnn1)C2` (stereo not drawn) [19-3], the IC50 was ≥ 1 µM.

Take `CC1COc2cc(F)ccc2N1C(=O)N1CC2(C1)CN(c1ccc(F)cn1)C2` (stereo not drawn) [12-1, (7-fluoro-3-methyl-2,3-dihydro-4H-benzo[b][1,4]oxazin-4-yl)(6-(5-fluoropyridin-2-yl)-2,6-diazaspiro[3.3]heptan-2-yl)methanone]: the IC50 was ≥ 1 µM.

Take `CC1COc2cc(Cl)ccc2N1C(=O)N1CC2(C1)CN(c1cccnc1)C2` (stereo not drawn) [20-1, (7-chloro-3-methyl-2,3-dihydro-4H-benzo[b][1,4]oxazin-4-yl)(6-(pyridin-3-yl)-2,6-diazaspiro[3.3]heptan-2-yl)methanone]: the IC50 is ≥ 1 µM.

For the molecule `O=C(N1CC2(C1)CN(c1ccc(F)cn1)C2)N1CCOc2cc(F)c(F)cc21` [9-6], the IC50 was ≥ 1 µM.

As to `Cc1cncc(N2CC3(CN(C(=O)N4c5ccc(F)cc5OCC4C)C3)C2)n1` (stereo not drawn) [20-2], the IC50 is ≥ 1 µM.

Consider `CC1COc2cc(Cl)ccc2N1C(=O)N1CC2(C1)CN(c1cccnn1)C2` (single isomer, unassigned) [9-1-A], for which the IC50 was ≥ 1 µM.

With `Cc1ccnc(N2CC3(CN(C(=O)N4c5ccc(F)cc5OCC4C)C3)C2)c1` (single isomer, unassigned) [20-4-B], the IC50 is ≥ 1 µM.

Take `Cc1cncc(N2CC3(CN(C(=O)N4c5ccc(F)cc5OCC4C)C3)C2)n1` (single isomer, unassigned) [20-2-B]: the IC50 was ≥ 1 µM.

As for `CC1COc2cc(Cl)c(F)cc2N1C(=O)N1CC2(C1)CN(c1cccnn1)C2` (single isomer, unassigned) [19-4-A], the IC50 was ≥ 1 µM.

Take `Cc1ccnc(N2CC3(CN(C(=O)N4c5ccc(Cl)cc5OCC4C)C3)C2)n1` (single isomer, unassigned) [20-12-B]: the IC50 is ≥ 1 µM.

Turning to `O=C(N1CC2(C1)CN(c1cnccn1)C2)N1CCC(O)c2cc(Cl)ccc21` (single isomer, unassigned) [13-3-A], the IC50 was ≥ 1 µM.

`O=C(N1CC2(C1)CN(c1ccc(F)cn1)C2)N1CCOc2cc(Cl)ccc21` [9-7]: the half-inhibitory concentration (IC50) is ≥ 1 µM.

As to `CC1COc2cc(Cl)c(F)cc2N1C(=O)N1CC2(C1)CN(c1cccnn1)C2` (stereo not drawn) [19-4], the IC50 was ≥ 1 µM.

In the case of `Cc1cccnc1N1CC2(CN(C(=O)N3CCOc4cc(Cl)ccc43)C2)C1` [1-5], the IC50 was ≥ 1 µM.

As to `O=C(N1CC2(C1)CN(c1ccccn1)C2)N1CCC(O)c2cc(Cl)ccc21` (single isomer, unassigned) [13-2-A], the half-inhibitory concentration (IC50) was ≥ 1 µM.

As to `CC1COc2cc(F)ccc2N1C(=O)N1CC2(C1)CN(c1ncccn1)C2` (stereo not drawn) [18-1, (7-fluoro-3-methyl-2,3-dihydro-4H-benzo[b][1,4]oxazin-4-yl)(6-(pyrimidin-2-yl)-2,6-diazaspiro[3.3]heptan-2-yl)methanone], the IC50 was ≥ 1 µM.

For `Cc1cncc(N2CC3(CN(C(=O)N4c5ccc(F)cc5OCC4C)C3)C2)n1` (single isomer, unassigned) [20-2-A], the IC50 is ≥ 1 µM.

As for `O=C(N1CC2(C1)CN(c1ccccn1)C2)N1CCC(O)c2cc(Cl)ccc21` (single isomer, unassigned) [13-2-B], the IC50 was ≥ 1 µM.

Consider `Cc1nc(N2CC3(CN(C(=O)N4CCOc5cc(Cl)ccc54)C3)C2)ncc1F` [6-1, (7-chloro-2,3-dihydro-4H-benzo[b][1,4]oxazin-4-yl)(6-(5-fluoro-4-methylpyrimidin-2-yl)-2,6-diazaspiro[3.3]heptan-2-yl)methanone], for which the half-maximal inhibitory concentration (IC50) was ≥ 1 µM.

As for `CC1COc2cc(F)c(F)cc2N1C(=O)N1CC2(C1)CN(c1ccc(F)cn1)C2` (single isomer, unassigned) [19-5-B], the IC50 was ≥ 1 µM.

For `CC1Cc2cc(Cl)ccc2N1C(=O)N1CC2(C1)CN(c1ccc(F)cn1)C2` (stereo not drawn) [8-16], the half-maximal inhibitory concentration (IC50) was ≥ 1 µM.

Regarding `CC1COc2cc(Cl)ccc2N1C(=O)N1CC2(C1)CN(c1cc(C#N)ccn1)C2` (single isomer, unassigned) [20-6-B], the half-inhibitory concentration (IC50) is ≥ 1 µM.

Regarding `CC1COc2cc(Cl)ccc2N1C(=O)N1CC2(C1)CN(c1cc(C#N)ccn1)C2` (stereo not drawn) [20-6], the IC50 is ≥ 1 µM.

`CC1CN(C(=O)N2CC3(C2)CN(c2ccc(F)cn2)C3)c2ccc(Cl)cc2O1` (single isomer, unassigned) [9-3-A]: the IC50 was ≥ 1 µM.

Regarding `O=C(N1CC2(C1)CN(c1ccccn1)C2)N1CCc2cc(Cl)ccc21` [1-77], the half-inhibitory concentration (IC50) is ≥ 1 µM.

For `Cc1nccnc1N1CC2(CN(C(=O)N3c4ccc(Cl)cc4OCC3C)C2)C1` (single isomer, unassigned) [20-10-A], the IC50 is ≥ 1 µM.

Turning to `CC1COc2cc(F)c(F)cc2N1C(=O)N1CC2(C1)CN(c1ncccn1)C2` (stereo not drawn) [19-1, (6,7-difluoro-3-methyl-2,3-dihydro-4H-benzo[b][1,4]oxazin-4-yl)(6-(pyrimidin-2-yl)-2,6-diazaspiro[3.3]heptan-2-yl)methanone], the IC50 is ≥ 1 µM.

For the molecule `Cc1ccnc(N2CC3(CN(C(=O)N4c5ccc(Cl)cc5OCC4C)C3)C2)c1` (stereo not drawn) [20-11], the IC50 was ≥ 1 µM.

As for `O=C(N1CC2(C1)CN(c1cnccn1)C2)N1CCOc2cc(Cl)ccc21` [8-3], the IC50 was ≥ 1 µM.

On to `O=C(N1CC2(C1)CN(c1ccc(F)cn1)C2)N1CCC(F)c2cc(Cl)ccc21` (stereo not drawn) [14-1, (6-chloro-4-fluoro-3,4-dihydroquinolin-1(2H)-yl)(6-(5-fluoropyridin-2-yl)-2,6-diazaspiro[3.3]heptan-2-yl)methanone], for which the IC50 was ≥ 1 µM.

In the case of `O=C(N1CC2(C1)CN(c1cccnn1)C2)N1CCOc2cc(Cl)c(F)cc21` [1-81], the IC50 was ≥ 1 µM.

In general, IC50 refers to the concentration needed to halve the response being measured.
